This is an account of results in patent US6583150B1, “Pharmaceutical composition based on polyaromatic compounds” (Laboratorie L. Lafon, priority 1999, dated 2003).

Where two headings read alike, the source gives them in different places.

One series deals with A549. In words: MTT cytotoxicity test, A549. The format is cell-based. Particulars: Homo sapiens, A549 non-small-cell lung cancer, 72 hours, read-out: concentrations flanking the IC50. How it is done: (§1) The influence of the compounds of formulae I and II on neoplastic cells was evaluated using the MTT calorimetric test. The principle of the MTT test is based on the mitochondrial reduction by metabolically active live cells of the yellow-colored product MTT (3-(4,5-dimethylthiazol-2-yl)-2,5-diphenyltetrazolium bromide) to a blue-colored product, formazan. The amount of formazan thus obtained is directly proportional to the amount of live cells present in the culture well(s). This amount of formazan is measured by spectrophotometry.
(§2) The cell lines are maintained in monolayer culture at 37° C. in stoppered culture dishes containing 25 MM HEPES MEM (Minimum Essential Medium) base medium. This medium, which is suitable for growing a range of varied diploid or primary mammalian cells, is then supplemented: […]
(§3) with a an amount of 5% FCS (Fetal Calf Serum) decomplemented at 56° C. for 1 hour, with 0.6 mg/mL of L-glutamine, with 200 IU/mL of penicillin, with […] of streptomycin, with 0.1 mg/mL of gentamicin.
(§4) The 12 human cancer cell lines used were obtained from the American Type Culture Collection (ATCC, Rockville, Md., USA). These 12 cell lines are: […]

The test system of a further series is U-373MG. The series is described as follows: MTT cytotoxicity test, U-373MG. The format is cell-based. The conditions noted are these: Homo sapiens, U373 MG, U-373MG glioblastoma, 72 hours, read-out: concentrations flanking the IC50. How it is done: as §1, §2, §3
(§5) The 12 human cancer cell lines used were obtained from the American Type Culture Collection (ATCC, Rockville, Md., USA). These 12 cell lines are:
(§6) U-373MG (code ATCC: HTB-17) and U-87MG (code ATCC: HTB-14) which are two glioblastomas, Experimentally: 100 μl of a cell suspension containing 200 000 to 50 000 (depending on the cell type used) cells/mL of culture medium are inoculated in flat-bottomed 96-well multi-well plates and are incubated at 37° C. under an atmosphere comprising 5% CO2 and 70% humidity. […] The intensity of the resulting blue coloration, and thus of the conversion of the yellow MTT product into blue formazan by the cells that are still alive at the end of the experiment is quantified by spectrophotometry using a DYNATECH IMMUNOASSAY SYSTEM machine at wavelengths of 570 nm and 630 nm corresponding, respectively, to the maximum absorption wavelengths of formazan and to the background noise. […]

For series [1], the system named is 12 human tumor lines: U-87MG, U-373MG, SW 1088, T24, J82, HCT-15, LoVo, MCF7, T-47D, A549, A-427 and PC-3. In words: MTT cytotoxicity test, panel of the 12 human tumor lines. The format is cell-based. The conditions noted are these: read-out: average IC50. How it is done:
as §1, §2, §3, §5
U-373MG (code ATCC: HTB-17) and U-87MG (code ATCC: HTB-14) which are two glioblastomas, SW1088 (code ATCC: HTB-12) which is an astrocytoma, A549 (code ATCC: CCL-185) and A-427 (code ATCC: HTB-53) which are two non-small-cell lung cancers, HCT-15 (code ATCC: CCL-225) and LoVo (code ATCC: CCL-229) which are two colorectal cancers, T-47D (code ATCC: HTB-133) and MCF7 (code ATCC: HTB-22) which are two breast cancers, J82 (code ATCC: HTB-1) and T24 (code ATCC: HTB-4) which are two bladder cancers, PC-3 (code ATCC: CRL-1435) which is a prostate cancer.
Experimentally: 100 μl of a cell suspension containing 200 000 to 50 000 (depending on the cell type used) cells/mL of culture medium are inoculated in flat-bottomed 96-well multi-well plates and are incubated at 37° C. under an atmosphere comprising 5% CO2 and 70% humidity. After incubating for 24 hours, the culture medium is replaced with 100 μl of fresh medium containing either the various test compounds at concentrations ranging from 10^−5 to 10^−10 M or the solvent used to dissolve the test products (control condition). After incubating for 72 hours under the above conditions, the culture medium is replaced with 100 μl of a yellowish solution of MTT dissolved at a rate of 1 mg/mL in RPMI 1640. The microplates are reincubated for 3 hours at 37° C. and then centrifuged for 10 minutes at 400×g. The yellowish solution of MTT is removed and the blue formazan crystals formed at the cellular level are dissolved in 100 μl of DMSO. The microplates are then agitated for 5 minutes. The intensity of the resulting blue coloration, and thus of the conversion of the yellow MTT product into blue formazan by the cells that are still alive at the end of the experiment is quantified by spectrophotometry using a DYNATECH IMMUNOASSAY SYSTEM machine at wavelengths of 570 nm and 630 nm corresponding, respectively, to the maximum absorption wavelengths of formazan and to the background noise. Software built into the spectrophotometer calculates the average optical density values and also the standard deviation (Std. Dev.) and standard error of mean (SEM) values.
The inhibitory activity on the cell growth of the compounds of formula I and of formula II on the different tumor cell lines was compared with that of the natural product meridine (CRL 8348). All of the compounds of formula I and of formula II show significant inhibitory activity on the cell proliferation of the 12 human tumor lines: U-87MG, U-373MG, SW 1088, T24, J82, HCT-15, LoVo, MCF7, T-47D, A549, A-427 and PC-3 with an inhibitory concentration 50 (IC50) which is between 10^−6 M and 10^−10M, depending on the compounds and the tumor lines tested. By way of example, the values of the concentrations flanking the IC50 which are obtained on the various cell lines are given in table II: […]

Another series relates to U-87MG. The series is described as follows: MTT cytotoxicity test, U-87MG. The format is cell-based. Particulars: Homo sapiens, U-87MG glioblastoma, 72 hours, read-out: concentrations flanking the IC50. As to the method: as §1, §2, §3, §5, §6
Series [2] in a line: Determination of the maximum tolerated dose (MTD). The conditions noted are these: mouse, in vivo, ip; single intraperitoneal administration, survival over 14 days, B6D2F1/Jico mice. It is filed as in vivo. How it is done:
(§7) The evaluation of the maximum tolerated dose was carried out on 4- to 6-week-old B6D2F1/Jico mice. […] The value of the MTD (expressed in mg/kg) is determined from observing the survival rate of the animals over a period of 14 days after a single administration of the product under consideration. The change in the weight of the animals is also monitored over this period.

In the next series the test system is MCF7. The series is described as follows: MTT cytotoxicity test, MCF7. It is filed as cell-based. The conditions noted are these: Homo sapiens, MCF7 breast cancer, 72 hours, read-out: concentrations flanking the IC50. As to the method:
as §1, §2, §3, §4

The test system of the next series is B6D2F1/Jico mice. The series is described as follows: Determination of the maximum tolerated dose (MTD). The format is in vivo. Particulars: single intraperitoneal administration, survival over 14 days. How it is done:
as §7

As to `COc1ccnc2c1C(=O)c1c(-c3ccccc3NC(=O)C(F)(F)F)ccnc1C2=O` [CRL 8275, 6-Methoxy-4-(2-trifluoroacetamidophenyl)pyrido-[3,2-g]quinoline-5,10-dione], the IC50 is less than 0.1 nM in the series on A549, less than 0.1 nM in the series with U-373MG, 2.3 nM in series [1] (Homo sapiens) and less than 0.1 nM with U-87MG. In addition, in series [2], the MTD at 14 days came to 80 mg/kg.

With `O=C1c2ncccc2C(=O)c2c(-c3ccccc3NC(=O)C(F)(F)F)ccnc21` [CRL 8277, 4-(2-Trifluoroacetamidophenyl)pyrido[3,2-g]quinoline-5,10-dione], in series [1] (Homo sapiens), the IC50 was found to be 12.5 nM. The MTD at 14 days in series [2] was more than 40 mg/kg.

Take `O=C1c2nccc(O)c2-c2nc3ccccc3c3ccnc1c23` [CRL 8348, meridine, reference compound]: the results for the IC50 (in the series on U-373MG; in series [1] (Homo sapiens)) were 100 nM and 170 nM, respectively. The maximum tolerated dose (MTD) at 14 days in series [2] was more than 160 mg/kg.

For the compound `COc1ccnc2c1-c1nc3ccccc3c3ccnc(c13)C2=O` [CRL 8276, 12-Methoxybenzo[b]pyrido[4,3,2-de][1,7]phenanthroline-8-one], the IC50 was less than 0.1 nM with U-373MG, less than 0.1 nM in the series with MCF7, 2.1 nM in series [1] (Homo sapiens) and less than 0.1 nM in the series on U-87MG. The same compound returned an MTD at 14 days in series [2] of 80 mg/kg.

Regarding cystodamine [reference compound], the IC50 in series [1] (calculated from the cytotoxic activity on the 12 tumor lines studied) is 100 nM. Besides, the MTD with B6D2F1/Jico mice was more than 160 mg/kg.
